Values after ≈ are worked out from the molar mass of the structure shown. Residues, ends and D or L forms follow the SMILES beside them.

One data set has as its system Klebsiella pneumoniae. The experiment in a line: Antibacterial activity against Klebsiella pneumoniae ATCC 700603 assessed as inhibition of bacterial growth incubated for 18 hrs by two fold serial dilution assay. It counts as functional.
A short description of data set [1]: Hydrophobicity of the compound assessed as retention time by reversed-phase HPLC analysis. It counts as physicochemical.
Data set [2] in a line: Hemolytic activity in human blood assessed as hemolysis incubated for 6 hrs by microplate reader analysis. It counts as toxicity, tissue-based.
Another data set concerns Escherichia coli. The experiment in a line: Antibacterial activity against Escherichia coli ATCC 25922 assessed as inhibition of bacterial growth incubated for 18 hrs by two fold serial dilution assay. It counts as functional.
The test system of another data set is Acinetobacter baumannii. The experiment in a line: Antibacterial activity against Acinetobacter baumannii ATCC 17978 assessed as inhibition of bacterial growth incubated for 18 hrs by two fold serial dilution assay. It counts as functional.

On to `CCCC(=O)N[C@@H](CC(N)=O)C(=O)N[C@@H](Cc1c[nH]cn1)C(=O)N[C@@H](CCCCN)C(=O)N[C@@H](CCCCN)C(=O)N[C@@H](C)C(=O)N[C@@H](CC(C)C)C(=O)N[C@@H](CCCCN)C(=O)N[C@@H](CC(C)C)C(=O)N[C@@H](C)C(=O)N[C@@H](CCCCN)C(=O)N[C@@H](CCCCN)C(=O)N1CCC[C@H]1C(=O)N[C@@H](CC(C)C)C(=O)N[C@@H](CCCCN)C(=O)N[C@@H](CC(C)C)C(=O)N[C@@H](CC(C)C)C(=O)N[C@@H](CCCCN)C(=O)N[C@@H](CS)C(N)=O` (HELM PEPTIDE1{[CCCC(=O)[*:2]].N.H.K.K.A.L.K.L.A.K.K.P.L.K.L.L.K.C.[am]}$$$$V2.0), for which the minimum inhibitory concentration (MIC) with Klebsiella pneumoniae, in the data set with Escherichia coli and in the data set on Acinetobacter baumannii was above 80 µM in each case. In data set [1], the Retention_time worked out at 16.1 min. For the same compound, in data set [2], the MHC10 is above 160 µM.
With `CCCCCC(=O)N[C@@H](CCCCN)C(=O)N[C@@H](CCCCN)C(=O)N[C@@H](C)C(=O)N[C@@H](CC(C)C)C(=O)N[C@@H](CCCCN)C(=O)N[C@@H](CC(C)C)C(=O)N[C@@H](C)C(=O)N[C@@H](CCCCN)C(=O)N[C@@H](CCCCN)C(=O)N1CCC[C@H]1C(=O)N[C@@H](CC(C)C)C(=O)N[C@@H](CCCCN)C(=O)N[C@@H](CC(C)C)C(=O)N[C@@H](CC(C)C)C(=O)N[C@@H](CCCCN)C(N)=O` (HELM PEPTIDE1{[CCCCCC(=O)[*:2]].K.K.A.L.K.L.A.K.K.P.L.K.L.L.K.[am]}$$$$V2.0), the values for the minimal inhibitory concentration (MIC) in the data set on Klebsiella pneumoniae, with Escherichia coli and in the data set with Acinetobacter baumannii were above 80 µM, above 80 µM and 80 µM (≈ 145 µg/mL), respectively. Moreover, the Retention_time in data set [1] is 17.1 min. In addition, in data set [2], the MHC10 is above 160 µM.
`CCCCCCCCCC(=O)N[C@@H](CCCCN)C(=O)N[C@@H](CCCCN)C(=O)N[C@@H](C)C(=O)N[C@@H](CC(C)C)C(=O)N[C@@H](CCCCN)C(=O)N[C@@H](CC(C)C)C(=O)N[C@@H](C)C(=O)N[C@@H](CCCCN)C(=O)N[C@@H](CCCCN)C(=O)N1CCC[C@H]1C(=O)N[C@@H](CC(C)C)C(=O)N[C@@H](CCCCN)C(=O)N[C@@H](CC(C)C)C(=O)N[C@@H](CC(C)C)C(=O)N[C@@H](CCCCN)C(N)=O` (HELM PEPTIDE1{[CCCCCCCCCC(=O)[*:2]].K.K.A.L.K.L.A.K.K.P.L.K.L.L.K.[am]}$$$$V2.0): the results for the MIC in the data set with Klebsiella pneumoniae, in the data set with Escherichia coli and with Acinetobacter baumannii were above 80 µM, 40 µM (≈ 74.9 µg/mL) and 5 µM (≈ 9.37 µg/mL), respectively. Further, the Retention_time in data set [1] is 19.4 min. Further, the MHC10 in data set [2] was above 160 µM.
In the same order, the values of `CCCCCCCCCCCC(=O)N[C@@H](CCCCN)C(=O)N[C@@H](CCCCN)C(=O)N[C@@H](C)C(=O)N[C@@H](CC(C)C)C(=O)N[C@@H](CCCCN)C(=O)N[C@@H](CC(C)C)C(=O)N[C@@H](C)C(=O)N[C@@H](CCCCN)C(=O)N[C@@H](CCCCN)C(=O)N1CCC[C@H]1C(=O)N[C@@H](CC(C)C)C(=O)N[C@@H](CCCCN)C(=O)N[C@@H](CC(C)C)C(=O)N[C@@H](CC(C)C)C(=O)N[C@@H](CCCCN)C(N)=O` (HELM PEPTIDE1{[CCCCCCCCCCCC(=O)[*:2]].K.K.A.L.K.L.A.K.K.P.L.K.L.L.K.[am]}$$$$V2.0) are 80 µM (≈ 152 µg/mL), 10 µM (≈ 19 µg/mL), 2.5 µM (≈ 4.75 µg/mL), 20.4 min and 160 µM.
As for `CCCCCCCCCCCCCC(=O)N[C@@H](CCCCN)C(=O)N[C@@H](CCCCN)C(=O)N[C@@H](C)C(=O)N[C@@H](CC(C)C)C(=O)N[C@@H](CCCCN)C(=O)N[C@@H](CC(C)C)C(=O)N[C@@H](C)C(=O)N[C@@H](CCCCN)C(=O)N[C@@H](CCCCN)C(=O)N1CCC[C@H]1C(=O)N[C@@H](CC(C)C)C(=O)N[C@@H](CCCCN)C(=O)N[C@@H](CC(C)C)C(=O)N[C@@H](CC(C)C)C(=O)N[C@@H](CCCCN)C(N)=O` (HELM PEPTIDE1{[CCCCCCCCCCCCCC(=O)[*:2]].K.K.A.L.K.L.A.K.K.P.L.K.L.L.K.[am]}$$$$V2.0), the minimum inhibitory concentration (MIC) – broadly, the lowest concentration that inhibits growth of the organism – in the data set with Klebsiella pneumoniae was found to be 20 µM (≈ 38.6 µg/mL); in the data set with Escherichia coli, 5 µM (≈ 9.65 µg/mL); in the data set with Acinetobacter baumannii it was 1.3 µM (≈ 2.51 µg/mL). The Retention_time in data set [1] was 21.7 min. The MHC10 in data set [2] stood at 53 µM.
Turning to `CCCCCCCCCCCCCCCC(=O)N[C@@H](CCCCN)C(=O)N[C@@H](CCCCN)C(=O)N[C@@H](C)C(=O)N[C@@H](CC(C)C)C(=O)N[C@@H](CCCCN)C(=O)N[C@@H](CC(C)C)C(=O)N[C@@H](C)C(=O)N[C@@H](CCCCN)C(=O)N[C@@H](CCCCN)C(=O)N1CCC[C@H]1C(=O)N[C@@H](CC(C)C)C(=O)N[C@@H](CCCCN)C(=O)N[C@@H](CC(C)C)C(=O)N[C@@H](CC(C)C)C(=O)N[C@@H](CCCCN)C(N)=O` (HELM PEPTIDE1{[CCCCCCCCCCCCCCCC(=O)[*:2]].K.K.A.L.K.L.A.K.K.P.L.K.L.L.K.[am]}$$$$V2.0), the MIC was determined as 10 µM (≈ 19.6 µg/mL) in the data set with Klebsiella pneumoniae, 5 µM (≈ 9.79 µg/mL) with Escherichia coli and 1.3 µM (≈ 2.55 µg/mL) in the data set on Acinetobacter baumannii. Also, in data set [1], the Retention_time worked out at 22.9 min. Besides, the MHC10 in data set [2] came to 5.9 µM.
With `NCC[C@H](O)C(=O)N[C@@H]1C[C@H](N)[C@@H](O[C@H]2O[C@H](CN)[C@@H](O)[C@H](O)[C@H]2O)[C@H](O)[C@H]1O[C@H]1O[C@H](CO)[C@@H](O)[C@H](N)[C@H]1O` [AMIKACIN], the values for the MIC in the data set with Klebsiella pneumoniae, in the data set on Escherichia coli and with Acinetobacter baumannii were 2.5 µM (≈ 1.46 µg/mL), 5 µM (≈ 2.93 µg/mL) and 2.5 µM (≈ 1.46 µg/mL), respectively.
Regarding Ac-KKALKLAKKPLKLLK-NH2, the MIC with Klebsiella pneumoniae, in the data set on Escherichia coli and with Acinetobacter baumannii was above 80 µM in each case. The Retention_time in data set [1] stood at 15.3 min. For the same compound, in data set [2], the MHC10 was above 160 µM.
Ac-KLLKLLKKPLKL-NH2: the minimal inhibitory concentration (MIC) in the data set with Klebsiella pneumoniae, in the data set with Escherichia coli and with Acinetobacter baumannii was above 80 µM in each case. Moreover, the Retention_time in data set [1] is recorded as 18 min. Also, in data set [2], the MHC10 is above 160 µM.
As for Ac-KLLKLLKKPLKLL-NH2, the MIC in the data set on Klebsiella pneumoniae is above 80 µM; with Escherichia coli it was above 80 µM; with Acinetobacter baumannii, 20 µM. In data set [1], the Retention_time is reported as 19.4 min. Further, in data set [2], the MHC10 is above 160 µM.
Turning to Ac-KLLKLLKKPLKLLKK-NH2, the minimal inhibitory concentration (MIC) in the data set with Klebsiella pneumoniae is above 80 µM; in the data set with Escherichia coli, above 80 µM; in the data set with Acinetobacter baumannii, 20 µM. Besides, the Retention_time in data set [1] is given as 18.2 min. Besides, in data set [2], the MHC10 is above 160 µM.
Take Ac-KLLKLLKKPLKLLKKL-NH2: the MIC in the data set on Klebsiella pneumoniae is 40 µM; in the data set on Escherichia coli, above 80 µM; with Acinetobacter baumannii, 5 µM. Further, the Retention_time in data set [1] was determined as 19.7 min. The MHC10 in data set [2] was above 160 µM.
In the same order, the values of Ac-LKKLLKLLKKPLKLLK-NH2 are 2.5 µM, above 10 µM, 1.3 µM, 20.1 min and 53 µM.
In the same order, the values of Ac-LKLLKKPLKLLK-NH2 are above 80 µM, above 80 µM, above 80 µM, 18 min and above 160 µM.
For Ac-LLKLLKKPLKLLK-NH2 the same measures were above 80 µM, above 80 µM, above 80 µM, 19.8 min and above 160 µM.

Source of the values: ChEMBL document CHEMBL5385907, “Proline-Hinged α-Helical Peptides Sensitize Gram-Positive Antibiotics, Expanding Their Physicochemical Properties to Be Used as Gram-Negative Antibiotics” (J Med Chem, 2024).
